In US10815276B2, “Cell penetrating peptides and methods of making and using thereof” (Entrada Therapeutics, Inc., priority 2014, dated 2020):
Starred links: 1 amine or outer side, 2 acyl side, 3 side chain; linkers in the order of their positions; H or OH if unused. Positions of bridges follow the written chain, without caps; N, C: chain ends. Non-standard residues stand in square brackets, D forms with d. Residues, ends and D or L forms follow the SMILES beside them. Trimesoyl = O=C(c1cc(C(=O)[*:2])cc(C(=O)[*:3])c1)[*:1]; dPhe(4-CN) = N#Cc1ccc(C[C@@H](N)C(=O)O)cc1; Phe(4-Br) = N[C@@H](Cc1ccc(Br)cc1)C(=O)O; Phe(4-F) = N[C@@H](Cc1ccc(F)cc1)C(=O)O; 2Nal = N[C@@H](Cc1ccc2ccccc2c1)C(=O)O; dPhe(2-F) = N[C@H](Cc1ccccc1F)C(=O)O; Pip = O=C(O)[C@@H]1CCCCN1; Dap = NC[C@H](N)C(=O)O; Sar = CNCC(=O)O

target: T1, Pin1 (Homo sapiens, UniProt Q13526, S16A/Y23A); assay: Pin1 binding by FA (FITC-labeled peptides); settings: FITC-labeled peptide, FA; read-out: KD
T1 construct: The full-length human S16A/Y23A mutant Pin1 was expressed and purified from E. coli; made in house

Row | Kd [nM] | Compound
1 | 590 ± 50 | C[C@@H]1NC(=O)[C@H](CCCNC(=N)N)NC(=O)[C@H](Cc2ccc3ccccc3c2)NC(=O)[C@@H]2CCCCN2C(=O)[C@@H]([C@H](C)O)NC(=O)[C@H](Cc2ccc(F)cc2)NC(=O)[C@@H](Cc2ccccc2F)NC(=O)c2cc3cc(c2)C(=O)NC[C@H](NC(=O)[C@@H](Cc2ccccc2)NC1=O)C(=O)N[C@@H](Cc1ccccc1)C(=O)N[C@@H](Cc1ccc2ccccc2c1)C(=O)N[C@@H](CCCNC(=N)N)C(=O)N[C@@H](CCCNC(=N)N)C(=O)N[C@@H](CCCNC(=N)N)C(=O)N[C@@H](CCCNC(=N)N)C(=O)N[C@H](C(=O)N[C@@H](CCCCN)C(N)=O)CNC3=O [Peptide 35, bicyclo[Tm-(D-2-Fpa-Fpa-D-Thr-Pip-Nal-Arg-Ala-D-Phe)-Dap-(Phe-Nal-Arg-Arg-Arg-Arg-Dap)]-Lys] ([dPhe(2-F)][Phe(4-F)][dT][Pip][2Nal]RA[dF][Dap]F[2Nal]RRRR[Dap]K-NH2; linker N-9-16 via Trimesoyl; C-terminus assumed)
2 | 350 ± 40 | C[C@@H]1NC(=O)[C@H](CCCNC(=N)N)NC(=O)[C@H](Cc2ccc3ccccc3c2)NC(=O)[C@@H]2CCCCN2C(=O)[C@@H]([C@H](C)O)NC(=O)[C@H](Cc2ccc(F)cc2)NC(=O)[C@@H](Cc2ccc(C#N)cc2)NC(=O)c2cc3cc(c2)C(=O)NC[C@H](NC(=O)[C@@H](Cc2ccccc2)NC1=O)C(=O)N[C@@H](Cc1ccccc1)C(=O)N[C@@H](Cc1ccc2ccccc2c1)C(=O)N[C@@H](CCCNC(=N)N)C(=O)N[C@@H](CCCNC(=N)N)C(=O)N[C@@H](CCCNC(=N)N)C(=O)N[C@@H](CCCNC(=N)N)C(=O)N[C@H](C(=O)N[C@@H](CCCCN)C(N)=O)CNC3=O [Peptide 38, bicyclo[Tm-(D-4-CyanoPhe-Fpa-D-Thr-Pip-Nal-Arg-Ala-D-Phe)-Dap-(Phe-Nal-Arg-Arg-Arg-Arg-Dap)]-Lys] ([dPhe(4-CN)][Phe(4-F)][dT][Pip][2Nal]RA[dF][Dap]F[2Nal]RRRR[Dap]K-NH2; linker N-9-16 via Trimesoyl; C-terminus assumed)
3 | 1680 ± 170 | C[C@@H]1NC(=O)[C@H](CCCNC(=N)N)NC(=O)[C@H](Cc2ccc3ccccc3c2)NC(=O)[C@@H]2CCCCN2C(=O)[C@@H]([C@H](C)O)NC(=O)[C@H](Cc2c[nH]cn2)NC(=O)[C@@H](Cc2ccccc2)NC(=O)c2cc3cc(c2)C(=O)NC[C@H](NC(=O)[C@@H](Cc2ccccc2)NC1=O)C(=O)N[C@@H](Cc1ccccc1)C(=O)N[C@@H](Cc1ccc2ccccc2c1)C(=O)N[C@@H](CCCNC(=N)N)C(=O)N[C@@H](CCCNC(=N)N)C(=O)N[C@@H](CCCNC(=N)N)C(=O)N[C@@H](CCCNC(=N)N)C(=O)N[C@H](C(=O)N[C@@H](CCCCN)C(N)=O)CNC3=O [Peptide 31, bicyclo[Tm-(D-Phe-His-D-Thr-Pip-Nal-Arg-Ala-D-Phe)-Dap-(Phe-Nal-Arg-Arg-Arg-Arg-Dap)]-Lys] ([dF]H[dT][Pip][2Nal]RA[dF][Dap]F[2Nal]RRRR[Dap]K-NH2; linker N-9-16 via Trimesoyl; C-terminus assumed)
4 | 450 ± 50 | C[C@@H]1NC(=O)[C@H](CCCNC(=N)N)NC(=O)[C@H](Cc2ccc3ccccc3c2)NC(=O)[C@@H]2CCCCN2C(=O)[C@@H]([C@H](C)O)NC(=O)[C@H](Cc2ccc(F)cc2)NC(=O)[C@@H](Cc2ccccc2)NC(=O)c2cc3cc(c2)C(=O)NC[C@H](NC(=O)[C@@H](Cc2ccccc2)NC1=O)C(=O)N[C@@H](CCCNC(=N)N)C(=O)N[C@@H](Cc1ccc2ccccc2c1)C(=O)N[C@@H](CCCNC(=N)N)C(=O)N[C@@H](Cc1ccccc1)C(=O)N[C@@H](CCCNC(=N)N)C(=O)N[C@@H](CCCNC(=N)N)C(=O)N[C@H](C(=O)N[C@@H](CCCCN)C(N)=O)CNC3=O [Peptide 44, bicyclo[Tm-(D-Phe-Fpa-D-Thr-Pip-Nal-Arg-Ala-D-Phe)-Dap-(Arg-Nal-Arg-Phe-Arg-Arg-Dap)]-Lys] ([dF][Phe(4-F)][dT][Pip][2Nal]RA[dF][Dap]R[2Nal]RFRR[Dap]K-NH2; linker N-9-16 via Trimesoyl; C-terminus assumed)
5 | 710 ± 120 | bicyclo[Tm-(D-4-Phe-Fpa-D-Nle-Pip-Nal-Arg-Ala-D-Phe)-Dap-(Phe-Nal-Arg-Arg-Arg-Arg-Dap)]-Lys [Peptide 40]
6 | 980 ± 180 | C[C@@H]1NC(=O)[C@H](CCCNC(=N)N)NC(=O)[C@H](Cc2ccc3ccccc3c2)NC(=O)[C@@H]2CCCCN2C(=O)[C@@H]([C@H](C)O)NC(=O)[C@H](Cc2ccc(F)cc2)NC(=O)[C@@H](Cc2ccccc2)NC(=O)c2cc3cc(c2)C(=O)NC[C@H](NC(=O)[C@@H](Cc2ccccc2)NC1=O)C(=O)N[C@@H](CCCNC(=N)N)C(=O)N[C@@H](CCCNC(=N)N)C(=O)N[C@@H](CCCNC(=N)N)C(=O)N[C@@H](CCCNC(=N)N)C(=O)N[C@@H](Cc1ccc2ccccc2c1)C(=O)N[C@@H](Cc1ccccc1)C(=O)N[C@H](C(=O)N[C@@H](CCCCN)C(N)=O)CNC3=O [Peptide 42, bicyclo[Tm-(D-Phe-Fpa-D-Thr-Pip-Nal-Arg-Ala-D-Phe)-Dap-(Arg-Arg-Arg-Arg-Nal-Phe-Dap)]-Lys] ([dF][Phe(4-F)][dT][Pip][2Nal]RA[dF][Dap]RRRR[2Nal]F[Dap]K-NH2; linker N-9-16 via Trimesoyl; C-terminus assumed)
7 | 1780 ± 420 | C[C@@H]1NC(=O)[C@H](CCCNC(=N)N)NC(=O)[C@H](Cc2ccc3ccccc3c2)NC(=O)[C@@H]2CCCCN2C(=O)[C@@H]([C@H](C)O)NC(=O)[C@H](Cc2ccc(Br)cc2)NC(=O)[C@@H](Cc2ccccc2)NC(=O)c2cc3cc(c2)C(=O)NC[C@H](NC(=O)[C@@H](Cc2ccccc2)NC1=O)C(=O)N[C@@H](Cc1ccccc1)C(=O)N[C@@H](Cc1ccc2ccccc2c1)C(=O)N[C@@H](CCCNC(=N)N)C(=O)N[C@@H](CCCNC(=N)N)C(=O)N[C@@H](CCCNC(=N)N)C(=O)N[C@@H](CCCNC(=N)N)C(=O)N[C@H](C(=O)N[C@@H](CCCCN)C(N)=O)CNC3=O [Peptide 32, bicyclo[Tm-(D-Phe-4-BrPhe-D-Thr-Pip-Nal-Arg-Ala-D-Phe)-Dap-(Phe-Nal-Arg-Arg-Arg-Arg-Dap)]-Lys] ([dF][Phe(4-Br)][dT][Pip][2Nal]RA[dF][Dap]F[2Nal]RRRR[Dap]K-NH2; linker N-9-16 via Trimesoyl; C-terminus assumed)
8 | 3190 ± 500 | C[C@H]1NC(=O)[C@H](CC(=O)O)NC(=O)[C@H](CCCNC(=N)N)NC(=O)[C@H](Cc2ccc3ccccc3c2)NC(=O)[C@@H]2CCCCN2C(=O)[C@@H](CC(=O)O)NC(=O)CN(C)C(=O)[C@@H]2CCCN2C(=O)c2cc3cc(c2)C(=O)NC[C@H](NC1=O)C(=O)N[C@@H](Cc1ccccc1)C(=O)N[C@@H](Cc1ccc2ccccc2c1)C(=O)N[C@@H](CCCNC(=N)N)C(=O)N[C@@H](CCCNC(=N)N)C(=O)N[C@@H](CCCNC(=N)N)C(=O)N[C@@H](CCCNC(=N)N)C(=O)N[C@H](C(=O)N[C@@H](CCCCN)C(N)=O)CNC3=O [Peptide 20, bicyclo[Tm-(Pro-Sar-D-Asp-Pip-Nal-Arg-Asp-D-Ala)-Dap-(Phe-Nal-Arg-Arg-Arg-Arg-Dap)]-Lys] (P[Sar][dD][Pip][2Nal]RD[dA][Dap]F[2Nal]RRRR[Dap]K-NH2; linker N-9-16 via Trimesoyl; C-terminus assumed)
9 | 720 ± 90 | C[C@H]1NC(=O)[C@H](CCCNC(=N)N)NC(=O)[C@H](CCCNC(=N)N)NC(=O)[C@H](Cc2ccc3ccccc3c2)NC(=O)[C@@H]2CCCCN2C(=O)[C@@H](CC(=O)O)NC(=O)CN(C)C(=O)[C@@H]2CCCN2C(=O)c2cc3cc(c2)C(=O)NC[C@H](NC1=O)C(=O)N[C@@H](Cc1ccccc1)C(=O)N[C@@H](Cc1ccc2ccccc2c1)C(=O)N[C@@H](CCCNC(=N)N)C(=O)N[C@@H](CCCNC(=N)N)C(=O)N[C@@H](CCCNC(=N)N)C(=O)N[C@@H](CCCNC(=N)N)C(=O)N[C@H](C(=O)N[C@@H](CCCCN)C(N)=O)CNC3=O [Peptide 19, bicyclo[Tm-(Pro-Sar-D-Asp-Pip-Nal-Arg-Arg-D-Ala)-Dap-(Phe-Nal-Arg-Arg-Arg-Arg-Dap)]-Lys] (P[Sar][dD][Pip][2Nal]RR[dA][Dap]F[2Nal]RRRR[Dap]K-NH2; linker N-9-16 via Trimesoyl; C-terminus assumed)
10 | 2170 ± 550 | C[C@H]1NC(=O)[C@H](Cc2ccc(O)cc2)NC(=O)[C@H](CCCNC(=N)N)NC(=O)[C@H](Cc2ccc3ccccc3c2)NC(=O)[C@@H]2CCCCN2C(=O)[C@@H](CC(=O)O)NC(=O)CN(C)C(=O)[C@@H]2CCCN2C(=O)c2cc3cc(c2)C(=O)NC[C@H](NC1=O)C(=O)N[C@@H](Cc1ccccc1)C(=O)N[C@@H](Cc1ccc2ccccc2c1)C(=O)N[C@@H](CCCNC(=N)N)C(=O)N[C@@H](CCCNC(=N)N)C(=O)N[C@@H](CCCNC(=N)N)C(=O)N[C@@H](CCCNC(=N)N)C(=O)N[C@H](C(=O)N[C@@H](CCCCN)C(N)=O)CNC3=O [Peptide 17, bicyclo[Tm-(Pro-Sar-D-Asp-Pip-Nal-Arg-Tyr-D-Ala)-Dap-(Phe-Nal-Arg-Arg-Arg-Arg-Dap)]-Lys] (P[Sar][dD][Pip][2Nal]RY[dA][Dap]F[2Nal]RRRR[Dap]K-NH2; linker N-9-16 via Trimesoyl; C-terminus assumed)
11 | 1260 ± 280 | C[C@@H]1NC(=O)[C@H](CCCNC(=N)N)NC(=O)[C@H](Cc2ccc3ccccc3c2)NC(=O)[C@@H]2CCCCN2C(=O)[C@@H]([C@H](C)O)NC(=O)[C@H](Cc2ccccc2)NC(=O)[C@@H](Cc2ccccc2)NC(=O)c2cc3cc(c2)C(=O)NC[C@H](NC(=O)[C@@H](Cc2ccccc2)NC1=O)C(=O)N[C@@H](Cc1ccccc1)C(=O)N[C@@H](Cc1ccc2ccccc2c1)C(=O)N[C@@H](CCCNC(=N)N)C(=O)N[C@@H](CCCNC(=N)N)C(=O)N[C@@H](CCCNC(=N)N)C(=O)N[C@@H](CCCNC(=N)N)C(=O)N[C@H](C(=O)N[C@@H](CCCCN)C(N)=O)CNC3=O [Peptide 28, bicyclo[Tm-(D-Phe-Phe-D-Thr-Pip-Nal-Arg-Ala-D-Phe)-Dap-(Phe-Nal-Arg-Arg-Arg-Arg-Dap)]-Lys] ([dF]F[dT][Pip][2Nal]RA[dF][Dap]F[2Nal]RRRR[Dap]K-NH2; linker N-9-16 via Trimesoyl; C-terminus assumed)
